Target: T1, human RXFP1 (Homo sapiens, UniProt Q9HBX9)
T1 construct: expressed in transfected cells
T1 sequence (Q9HBX9 1-757): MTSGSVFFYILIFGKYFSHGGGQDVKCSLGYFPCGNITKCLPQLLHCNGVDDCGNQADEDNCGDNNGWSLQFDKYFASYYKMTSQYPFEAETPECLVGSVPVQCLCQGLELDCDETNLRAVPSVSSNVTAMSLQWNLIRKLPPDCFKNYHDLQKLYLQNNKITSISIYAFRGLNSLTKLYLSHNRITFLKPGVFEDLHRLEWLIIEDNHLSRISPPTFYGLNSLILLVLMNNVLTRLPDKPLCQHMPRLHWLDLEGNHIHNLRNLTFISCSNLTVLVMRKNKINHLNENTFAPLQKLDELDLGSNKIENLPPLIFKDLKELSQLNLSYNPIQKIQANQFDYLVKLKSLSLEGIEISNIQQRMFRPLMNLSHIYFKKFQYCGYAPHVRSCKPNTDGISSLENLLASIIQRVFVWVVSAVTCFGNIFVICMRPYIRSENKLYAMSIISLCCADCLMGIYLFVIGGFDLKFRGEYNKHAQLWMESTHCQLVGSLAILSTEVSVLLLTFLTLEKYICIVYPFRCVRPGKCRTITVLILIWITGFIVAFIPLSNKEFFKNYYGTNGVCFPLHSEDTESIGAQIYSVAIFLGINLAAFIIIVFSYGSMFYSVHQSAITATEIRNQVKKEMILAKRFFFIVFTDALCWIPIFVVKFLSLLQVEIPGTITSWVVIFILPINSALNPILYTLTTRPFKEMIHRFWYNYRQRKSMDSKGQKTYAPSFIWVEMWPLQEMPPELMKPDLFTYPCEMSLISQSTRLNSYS
Experiment: hRXFP1 HEK293 cAMP assay (HTRF)
Format: cell-based
Details: HEK293 cells stably expressing human RXFP1, 30 min at room temperature
In short: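 Potency and activity come from a four-parameter logistic fit of cAMP against compound concentration, tested from 0.010 nM up to 50 μM. The assay uses HEK293 cells stably expressing human RXFP1, incubated 30 min at ambient temperature with phosphodiesterase inhibitor IBMX present.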

Compared with `COc1ccc(C(C)(C)CCO)cc1C(=O)N[C@H]1[C@@H](C(=O)Nc2ccc(F)c(C(F)(F)F)c2)[C@H]2CC[C@@H]1/C2=C\C(F)(F)F` [Example 272, (1R,2S,3R,4R,7Z)-N-[4-fluoro-3-(trifluoromethyl)phenyl]-3-[5-(4-hydroxy-2-methylbutan-2-yl)-2-methoxybenzamido]-7-(2,2,2-trifluoroethylidene) bicyclo[2.2.1]heptane-2-carboxamide], `COc1ccc(C#CCCCO)cc1C(=O)N[C@@H]1C2CCC(/C2=C/C(F)(F)F)[C@@H]1C(=O)Nc1ccc(F)c(C(F)(F)F)c1` (stereo partly drawn) [Example 77, (2S,3R,7Z)-N-[4-fluoro-3-(trifluoromethyl)phe-nyl]-3-[5-(5-hydroxypent-1-yn-1-yl)-2-methoxybenzamido]-7-(2,2,2-trifluoroethylidene)bi-cyclo[2.2.1]heptane-2-carboxamide] is 6.8-fold lower in EC50: 422 nM for the first, 62 nM for the second. The second is the more potent here.

First: COc1ccc(CCCN)cc1C(=O)N[C@H]1[C@@H](C(=O)Nc2ccc(F)c(C(F)(F)F)c2)[C@H]2CC[C@@H]1/C2=C\C(F)(F)F [Example 110, (1R,2S,3R,4R,Z)-3-(5-(3-aminopropyl)-2-methoxybenzamido)-N-(4-fluoro-3-(trifluoromethyl)phenyl)-7-(2,2,2-trifluoroethylidene) bicyclo[2.2.1]heptane-2-carboxamide]
Second: COc1ccc(CCCCCC#N)cc1C(=O)NC1C2CCC(/C2=C/C(F)(F)F)[C@@H]1C(=O)Nc1ccc(F)c(C(F)(F)F)c1 (stereo partly shown) [Example 181, (7Z)-3-[5-(5-cyanopentyl)-2-methoxybenzamido]-N-[4-fluoro-3-(trifluoromethyl)phe-nyl]-7-(2,2,2-trifluoroethylidene)bi-cyclo[2.2.1]heptane-2-carboxamide]
The EC50 of the first is 24-fold higher: 2520 nM for the first, 103 nM for the second. The second is the more potent here.

Going from `COc1ccc(/C=C(\C)C(=O)N2CCC(O)CC2)cc1C(=O)N[C@H]1[C@@H](C(=O)Nc2ccc(F)c(C(F)(F)F)c2)[C@H]2CC[C@@H]1/C2=C\C(F)(F)F` [Example 312, (1R,2S,3R,4R,7Z)-N-[4-fluoro-3-(trifluoromethyl)phenyl]-3-{5-[(1E)-3-(4-hydroxypiperidin-1-yl)-2-methyl-3-oxoprop-1-en-1-yl]-2-methoxybenzamido}-7-(2,2,2-trifluoroethylidene) bicyclo[2.2.1]heptane-2-carboxamide] to `COc1ccc(/C=C/C(=O)N2CC[C@@H](O)C2)cc1C(=O)N[C@@H]1C2CCC(/C2=C/C(F)(F)F)[C@@H]1C(=O)Nc1ccc(F)c(C(F)(F)F)c1` (stereo partly drawn) [Example 129, (2S,3R,7Z)-N-[4-fluoro-3-(trifluoromethyl)phe-nyl]-3-{5-[(1E)-3-[(3R)-3-hydroxypyrrolidin-1-yl]-3-oxoprop-1-en-1-yl]-2-methoxybenzamido}-7-(2,2,2-trifluoroethylidene)bi-cyclo[2.2.1]heptane-2-carboxamide], the EC50 rises from 31.4 nM to 111 nM (3.5-fold). The first is the more potent here.

Compared with `COc1cc(F)c(O[C@H]2CC[C@](C)(C(=O)O)CC2)cc1C(=O)N[C@H]1[C@@H](C(=O)NCC2(C)CCC2)[C@H]2CC[C@@H]1/C2=C\C1CC1` [Example 377, (1R,4r)-4-(5-(((1R,2R,3S,4R,Z)-7-(cyclopropyl-methylene)-3-(((1-methylcyclobutyl)methyl)carbamoyl)bicyclo[2.2.1]heptan-2-yl)carbamoyl)-2-fluoro-4-methoxyphenoxy)-1-methylcyclohexane-1-carboxylic acid], `COc1ccc(C(=O)N2CCC3(CC2)COC3)cc1C(=O)N[C@H]1[C@@H](C(=O)Nc2ccc(F)c(C(F)(F)F)c2)[C@H]2CC[C@@H]1/C2=C\C1CC1` [Example 246, (1R,2S,3R, 4R,7Z)-7-(cyclopropyl-methylidene)-N-[4-fluoro-3-(trifluoromethyl)phenyl]-3-(2-methoxy-5-{2-oxa-7-azaspiro[3.5]nonane-7-carbonyl}benzamido) bicyclo[2.2.1] heptane-2-carboxamide] is 4.3-fold lower in EC50: 59 nM for the first, 13.7 nM for the second. The second is the more potent here.

First: COc1ccc(C2CC3CC(O)CC32)cc1C(=O)N[C@H]1[C@@H](C(=O)Nc2ccc(F)c(C(F)(F)F)c2)[C@H]2CC[C@@H]1/C2=C\C1CC1 (single isomer, unassigned) [Example 340]
Second: COc1ccc(COC2=NOC3CC(O)CC23)cc1C(=O)N[C@H]1[C@@H](C(=O)Nc2ccc(F)c(C(F)(F)F)c2)[C@H]2CC[C@@H]1/C2=C\C1CC1 (stereo partly drawn) [Example 301, (1R,2S,3R,4R,7Z)-7-(cyclopropylmethylidene)-N-[4-fluoro-3-(trifluoromethyl)phenyl]-3-{5-[({5-hydroxy-3aH,4H,5H,6H,6aH cyclopenta[d][1,2]oxazol-3-yl}oxy)methyl]-2-methoxybenzamido} bicyclo[2.2.1] heptane-2-carboxamide]
The EC50 of the first is 3.6-fold higher: 78.5 nM for the first, 21.6 nM for the second.

Compared with `COc1ccc(C2CCCC(C(=O)O)C2)cc1C(=O)NC1C2CCC(/C2=C/C(F)(F)F)[C@@H]1C(=O)Nc1ccc(F)c(C(F)(F)F)c1` (stereo partly drawn) [Example 144, 3-(3-{[(2R,3S,7Z)-3-{[4-fluoro-3-(trifluoromethyl)phe-nyl]carbamoyl}-7-(2,2,2-trifluoroethylidene)bi-cyclo[2.2.1]heptan-2-yl]carbamoyl}-4-methoxyphenyl)cyclo-hexane-1-carboxylic acid], `COc1ccc(C2CCCC(NCC(=O)O)C2)cc1C(=O)N[C@@H]1C2CCC(/C2=C/C(F)(F)F)[C@@H]1C(=O)Nc1ccc(F)c(C(F)(F)F)c1` (stereo partly shown) [Example 354] is 37-fold higher in EC50: 134 nM for the first, 4990 nM for the second. The first is the more potent here.

Compared with `COc1ccc(C2CCCC(NC(=O)C3CCOCC3)C2)cc1C(=O)N[C@@H]1C2CCC(/C2=C/C(F)(F)F)[C@@H]1C(=O)Nc1ccc(F)c(C(F)(F)F)c1` (single isomer, unassigned) [Example 50], `COc1ccc(C2CCCC2)cc1C(=O)N[C@@H]1C2CCC(/C2=C/C(F)(F)F)[C@@H]1C(=O)Nc1ccc(F)c(C(F)(F)F)c1` (stereo partly drawn) [Example 47, (2S,3R,7Z)-3-(5-cyclopentyl-2-methoxybenzamido)-N-[4-fluoro-3-(trifluoroemthyl)phe-nyl]-7-(2,2,2-trifluoroethylidene) bicyclo[2.2.1]heptane-2-carboxamide] is 2.5-fold lower in EC50: 2350 nM for the first, 926 nM for the second.

Molecule `COc1ccc(/C=C/C(=O)N2CC3CCC(C2)O3)cc1C(=O)N[C@H]1[C@@H](C(=O)Nc2ccc(F)c(C(F)(F)F)c2)[C@H]2CC[C@@H]1/C2=C\C(F)(F)F` [Example 311, (1R,2S,3R,4R,7Z)-N-[4-fluoro-3-(trifluoromethyl)phenyl]-3-{2-methoxy-5-[(1E)-3-{8-oxa-3-azabicyclo[3.2.1]octan-3-yl}-3-oxoprop-1-en-1-yl]benzamido}-7-(2,2,2-trifluoroethylidene) bicyclo[2.2.1]heptane-2-carboxamide] has an EC50 of 90.9 nM.

System: not given
Experiment: not given
Details: intravenous (IV) formulation; cited from earlier work

For “Serelaxin: "an intravenous (IV) formulation of the recombinant human relaxin peptide with a relatively short first-phase pharmacokinetic half-life of 0.09 hours"”, the first-phase pharmacokinetic half-life is listed as 5.4 min.

— US20250268903A1, “RXFP1 AGONISTS” (BRISTOL-MYERS SQUIBB COMPANY, priority 2021, published 2025)
